Assay results from patent US20080161336A1, “Orally bioavailable CCI-779 formulations” (Wyeth, priority 2005, published 2008).

Assays:
[1] = Bioavailability study: safety (adverse events, laboratory abnormalities, vital signs); assay type: in vivo, human
From the text: On day 1 of each of the 3 study periods, the subjects received a single oral dose of 1 of 4 treatments (treatments A, B, C, or reference).
On day 1 of each of the 3 study periods, the subjects received a single oral dose of 1 of 4 treatments (A, B, C, or reference).

Water solubility = assay type: physicochemical
[2] = Partition coefficient in 1-octanol/water system; assay type: physicochemical
[3] = BCS classification system; assay type: physicochemical
[4] = Stability of CCI-779 (aqueous, oxidation, hydroalcoholic granulation solution); assay type: physicochemical
From the text: One obstacle towards the formulation of CCI-779 is its poor aqueous dissolution and low oral bioavailability. […] A CCI-779 formulation was developed that employed a wet granulation manufacturing process. See US Published Patent Application No. US-2004-0077677-A1. This process involved preparation of a hydroalcoholic granulation solution of CCI-779. Further, although the resulting tablets were stable and bioavailable, the preparation of the hydroalcoholic solution was very tedious.

[5] = system: histologically diverse tumor cells; conditions: in vitro, cited from earlier work

## COC1C[C@@H]2CC[C@@H](C)[C@@](O)(O2)C(=O)C(=O)N2CCCC[C@H]2C(=O)O[C@H]([C@H](C)CC2CC[C@@H](OC(=O)C(C)(CO)CO)[C@H](OC)C2)CC(=O)[C@H](C)/C=C(\C)[C@@H](O)[C@@H](OC)C(=O)[C@H](C)C[C@H](C)/C=C/C=C/C=C/1C (stereo partly drawn) [CCI-779, Rapamycin 42-ester with 3-hydroxy-2-(hydroxymethyl)-2-methylpropionic acid]
[1]; all 45 treatment-emergent AEs
  severity of treatment-emergent AEs: mild
[1]; all treatments, 4 subjects
  subjects with aminotransferase elevations: 10%
[1]; all treatments, 5 subjects
  subjects with white blood cells in the urine: 13%
[1]; during the study
  deaths or other serious adverse events: No deaths or other serious adverse events occurred
[1]; in vivo
  vital sign measurements, electrocardiogram results, physical examination findings: No clinically significant trends
[1]; number of subjects, all treatments
  subjects with clinically significant laboratory abnormalities after dose administration: 13
[1]; number of the 45 AEs
  AEs considered by the investigator to be related to CCI-779 treatment: 16
[1]; of the 40 subjects who received CCI-779, all treatments
  subjects with at least 1 treatment-emergent adverse event (AE): 48%
Water solubility
  solubility: < 1 µg/mL
[2]
  Log PC: ≥ 4.1
[3]
  BCS classification: class II
[4]
  aqueous stability: aqueous instability
[4]; after its preparation
  stability of hydroalcoholic granulation solution of CCI-779: precipitating within one day
[5]; CNS cancer, leukemia (T-cell), breast cancer, prostate cancer, melanoma lines among the most sensitive
  growth of tumor cells: inhibit the growth
[5]
  cell cycle effect: arrested cells in the G1 phase
